Drawing on US20250136578A1 (Kolm Therapeutics Inc., priority 2023, published 2025), this text covers IC50 and EC50 for 15 compounds.

One may read the IC50 as the concentration at which inhibition is half-maximal. Lower therefore signals greater potency in that assay.

One assay has as its system VCaP cells. Put plainly: VCaP growth inhibition assay (CTG). Type of assay: cell-based. As to conditions: Homo sapiens, 216 h, 30 pM R1881, 9 days. Summed up:
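VCaP cells in phenol red-free DMEM with 5% charcoal-stripped serum were stimulated with 30 pM R1881 (final) and treated with compound from 100 nM to 10 fM final (1:5 dilutions) for 9 days at 37 °C. Viability was read by CellTiter-Glo luminescence, and IC50 came from 4-parameter logistic fits.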

Another assay has as its target AR / CBP ternary complex (Homo sapiens, UniProt P10275+Q92793). The experiment in a line: Ternary complex formation assay (sandwich ELISA, AR capture, CBP antibody detection) in VCaP cell lysates. The format is cell-based. As to conditions: treated 1.5 hours, rabbit CBP or p300 antibody detection, average, read-out: Average Ternary Complex. Summed up: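 VCaP cells in 5% charcoal-stripped FBS were cultured ≥3 days and then given bifunctional compound for 1.5 h. Lysates went onto AR-antibody-coated plates. Bound CBP (or p300) was detected with a rabbit antibody plus HRP anti-rabbit, using QuantaRed chemifluorescence (ex 570/em 585) read immediately, at 5 min and at 15 min.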
Background: In an ELISA, binding on a coated surface is turned into a signal by an enzyme label.

Molecules are shown by their SMILES. Where only a bound is given, the exact number is not on record here.

Sequence of AR / CBP ternary complex (P10275 whole entry): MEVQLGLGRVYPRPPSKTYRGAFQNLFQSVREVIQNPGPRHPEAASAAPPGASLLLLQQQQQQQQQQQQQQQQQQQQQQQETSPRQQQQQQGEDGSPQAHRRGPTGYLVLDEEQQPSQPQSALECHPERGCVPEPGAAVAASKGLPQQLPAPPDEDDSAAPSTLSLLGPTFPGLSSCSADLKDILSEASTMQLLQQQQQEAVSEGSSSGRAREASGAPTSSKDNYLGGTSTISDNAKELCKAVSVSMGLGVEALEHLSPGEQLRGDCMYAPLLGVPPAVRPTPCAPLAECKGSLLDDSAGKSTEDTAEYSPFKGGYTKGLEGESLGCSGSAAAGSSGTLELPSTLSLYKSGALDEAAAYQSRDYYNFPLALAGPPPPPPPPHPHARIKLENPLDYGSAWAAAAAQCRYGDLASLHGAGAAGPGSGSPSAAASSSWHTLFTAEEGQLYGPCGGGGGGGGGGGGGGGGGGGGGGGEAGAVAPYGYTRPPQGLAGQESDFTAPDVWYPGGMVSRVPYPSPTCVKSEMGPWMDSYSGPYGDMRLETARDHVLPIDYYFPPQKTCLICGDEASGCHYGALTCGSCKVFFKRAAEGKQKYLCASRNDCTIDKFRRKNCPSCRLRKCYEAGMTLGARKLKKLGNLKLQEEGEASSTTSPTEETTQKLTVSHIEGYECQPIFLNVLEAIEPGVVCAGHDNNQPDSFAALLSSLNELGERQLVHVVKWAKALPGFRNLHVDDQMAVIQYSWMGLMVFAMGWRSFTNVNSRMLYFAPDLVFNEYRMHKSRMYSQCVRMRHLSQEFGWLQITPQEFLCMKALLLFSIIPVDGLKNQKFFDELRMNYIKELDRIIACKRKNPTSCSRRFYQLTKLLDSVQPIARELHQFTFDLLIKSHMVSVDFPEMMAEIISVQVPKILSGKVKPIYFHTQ
Sequence of AR / CBP ternary complex (Q92793 2-2442): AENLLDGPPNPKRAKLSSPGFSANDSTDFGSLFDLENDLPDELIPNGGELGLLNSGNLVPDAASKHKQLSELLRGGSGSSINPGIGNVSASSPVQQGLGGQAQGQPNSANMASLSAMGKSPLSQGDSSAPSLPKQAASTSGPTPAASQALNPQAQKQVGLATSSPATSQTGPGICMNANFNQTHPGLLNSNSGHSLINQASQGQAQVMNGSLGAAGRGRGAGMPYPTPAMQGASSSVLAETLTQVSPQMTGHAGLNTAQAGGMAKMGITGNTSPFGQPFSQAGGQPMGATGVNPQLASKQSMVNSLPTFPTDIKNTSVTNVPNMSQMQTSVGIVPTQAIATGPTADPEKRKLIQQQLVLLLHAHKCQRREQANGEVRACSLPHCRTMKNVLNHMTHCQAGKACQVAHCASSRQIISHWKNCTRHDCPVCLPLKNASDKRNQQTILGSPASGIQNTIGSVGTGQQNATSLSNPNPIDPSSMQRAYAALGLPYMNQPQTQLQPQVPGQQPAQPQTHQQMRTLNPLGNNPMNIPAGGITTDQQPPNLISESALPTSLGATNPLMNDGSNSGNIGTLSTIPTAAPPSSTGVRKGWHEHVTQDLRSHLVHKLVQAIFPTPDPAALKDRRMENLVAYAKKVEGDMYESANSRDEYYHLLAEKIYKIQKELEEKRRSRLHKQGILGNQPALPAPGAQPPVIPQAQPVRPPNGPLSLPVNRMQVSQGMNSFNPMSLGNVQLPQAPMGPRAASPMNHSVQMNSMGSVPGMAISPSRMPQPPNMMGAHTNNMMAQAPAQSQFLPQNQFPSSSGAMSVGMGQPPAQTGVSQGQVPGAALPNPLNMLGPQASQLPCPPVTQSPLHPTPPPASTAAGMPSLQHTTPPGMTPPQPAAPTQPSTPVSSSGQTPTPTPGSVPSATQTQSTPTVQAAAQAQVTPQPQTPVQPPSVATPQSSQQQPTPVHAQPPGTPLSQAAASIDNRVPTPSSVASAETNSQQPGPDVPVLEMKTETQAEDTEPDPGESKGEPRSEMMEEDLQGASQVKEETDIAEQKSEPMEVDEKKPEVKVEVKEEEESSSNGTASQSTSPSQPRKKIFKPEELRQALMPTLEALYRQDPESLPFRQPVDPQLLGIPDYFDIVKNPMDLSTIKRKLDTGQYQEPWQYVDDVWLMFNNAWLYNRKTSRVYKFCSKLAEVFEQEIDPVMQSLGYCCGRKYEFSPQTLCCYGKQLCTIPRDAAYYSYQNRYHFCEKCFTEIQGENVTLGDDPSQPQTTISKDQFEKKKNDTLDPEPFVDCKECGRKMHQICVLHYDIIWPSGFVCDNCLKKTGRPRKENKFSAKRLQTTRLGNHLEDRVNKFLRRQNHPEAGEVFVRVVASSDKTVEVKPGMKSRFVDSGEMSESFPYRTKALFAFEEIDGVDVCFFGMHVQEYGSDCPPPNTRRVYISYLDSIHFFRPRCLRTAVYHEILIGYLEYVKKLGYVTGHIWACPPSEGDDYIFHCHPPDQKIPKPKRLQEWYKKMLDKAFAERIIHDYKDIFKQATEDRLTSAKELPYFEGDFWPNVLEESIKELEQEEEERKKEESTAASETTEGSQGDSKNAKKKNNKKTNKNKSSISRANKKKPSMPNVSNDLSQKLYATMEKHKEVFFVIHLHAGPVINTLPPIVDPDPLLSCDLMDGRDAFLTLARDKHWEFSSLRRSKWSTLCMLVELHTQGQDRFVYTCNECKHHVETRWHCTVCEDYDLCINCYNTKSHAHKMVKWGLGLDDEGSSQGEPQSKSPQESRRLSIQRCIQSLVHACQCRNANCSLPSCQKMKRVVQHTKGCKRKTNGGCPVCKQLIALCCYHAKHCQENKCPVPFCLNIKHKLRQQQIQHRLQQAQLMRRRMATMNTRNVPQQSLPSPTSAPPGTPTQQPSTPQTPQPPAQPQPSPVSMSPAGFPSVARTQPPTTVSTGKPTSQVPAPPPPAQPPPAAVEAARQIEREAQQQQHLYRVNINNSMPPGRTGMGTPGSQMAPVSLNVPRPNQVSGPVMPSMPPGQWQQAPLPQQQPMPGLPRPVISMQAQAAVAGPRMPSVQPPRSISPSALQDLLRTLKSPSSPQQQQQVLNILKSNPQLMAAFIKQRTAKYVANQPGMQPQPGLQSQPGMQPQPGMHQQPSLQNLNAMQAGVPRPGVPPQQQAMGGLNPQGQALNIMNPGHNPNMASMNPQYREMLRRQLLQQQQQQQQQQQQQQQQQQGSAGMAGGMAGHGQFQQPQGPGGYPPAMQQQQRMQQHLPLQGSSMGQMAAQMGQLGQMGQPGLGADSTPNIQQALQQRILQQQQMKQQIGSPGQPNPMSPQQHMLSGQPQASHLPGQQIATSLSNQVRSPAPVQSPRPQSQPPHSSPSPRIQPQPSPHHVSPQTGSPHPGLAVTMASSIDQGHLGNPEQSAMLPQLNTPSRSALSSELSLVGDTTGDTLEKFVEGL

The compound `CN1C(=O)CCc2cc(N3CCCc4cc(-c5ccc(CCC6CCN(c7ccc(C(=O)N[C@H]8CC[C@H](Oc9ccc(C#N)c(Cl)c9)CC8)nn7)CC6)nc5)c(C(F)F)cc43)ccc21` [Compound 59, N-[4-(3-chloro-4-cyano-phenoxy)cyclohexyl]-6-[4-[2-[5-[7-(difluoromethyl)-1-(1-methyl-2-oxo-3,4-dihydroquinolin-6-yl)-3,4-dihydro-2H-quinolin-6-yl]-2-pyridyl]ethyl]-1-piperidyl]pyridazine-3-carboxamide] yielded an IC50 in the assay with VCaP cells of over 100 nM. For the same compound, the EC50 on AR / CBP ternary complex was over 100 nM.

For `CC(=O)N1CCc2c(c(-c3cccc4cc(-c5cnn(C6CCN(C7CCN(c8ccc(C(=O)N[C@H]9CC[C@H](Oc%10ccc(C#N)c(Cl)c%10)CC9)nn8)CC7)CC6)c5)ncc34)nn2C2CCOCC2)C1` [Compound 183], the half-maximal inhibitory concentration (IC50) in the assay on VCaP cells lay in the range of 0.1 to 1 nM. Further, the EC50 at AR / CBP ternary complex is under 1 nM.

In the assay with VCaP cells, `CC(=O)N1CCc2c(c(N3CCCc4cc(-c5cnn(C)c5)c(C(F)F)cc43)nn2[C@@H]2CCN(CC3CCN(c4ccc(C(=O)N[C@H]5CC[C@H](Oc6ccc(C#N)c(Cl)c6)CC5)nn4)CC3)C[C@H]2F)C1` [Compound 141, 6-[4-[[(3R,4R)-4-[5-acetyl-3-[7-(difluoromethyl)-6-(1-methylpyrazol-4-yl)-3,4-dihydro-2H-quinolin-1-yl]-6,7-dihydro-4H-pyrazolo[4,3-c]pyridin-1-yl]-3-fluoro-1-piperidyl]methyl]-1-piperidyl]-N-[4-(3-chloro-4-cyano-phenoxy)cyclohexyl]pyridazine-3-carboxamide] returned a half-inhibitory concentration (IC50) of at most 0.1 nM. The EC50 at AR / CBP ternary complex is under 1 nM.

The compound `CC(=O)N1CCc2c(c(-c3cccc4cc(-c5cnn(CCC6CCN(c7ccc(C(=O)N[C@H]8CC[C@H](Oc9ccc(C#N)c(Cl)c9)CC8)nn7)CC6)c5)ncc34)nn2C2CCC2)C1` [Compound 83, 6-[4-[2-[4-[8-(5-acetyl-1-cyclobutyl-6,7-dihydro-4H-pyrazolo[4,3-c]pyridin-3-yl)-3-isoquinolyl]pyrazol-1-yl]ethyl]-1-piperidyl]-N-[4-(3-chloro-4-cyanophenoxy)cyclohexyl]pyridazine-3-carboxamide] gave an IC50 in the assay on VCaP cells of 0.1 to 1 nM. For the same compound, the EC50 on AR / CBP ternary complex was under 1 nM.

`CC(=O)N1CCc2c(c(-c3cccc4cc(-c5cnn(C)c5)ncc34)nn2C2CCN(C(=O)C3CCN(c4ccc(C(=O)N[C@H]5CC[C@H](Oc6ccc(C#N)c(Cl)c6)CC5)cc4)CC3)CC2)C1` [Compound 164, 4-[4-[4-[5-acetyl-3-[3-(1-methylpyrazol-4-yl)-8-isoquinolyl]-6,7-dihydro-4H-pyrazolo[4,3-c]pyridin-1-yl]piperidine-1-carbonyl]-1-piperidyl]-N-[4-(3-chloro-4-cyano-phenoxy)cyclohexyl]benzamide] displayed a half-inhibitory concentration (IC50) in the assay on VCaP cells of 0.1 to 1 nM. Also, at AR / CBP ternary complex, the EC50 was under 1 nM.

Compound `CC(=O)N1CCc2c(c(N3CCCc4cc(C#N)c(C(F)F)cc43)nn2C2CCN(C[C@H]3[C@H](C)CN(c4ccc(C(=O)N[C@H]5CC[C@H](Oc6ccc(C#N)c(Cl)c6)CC5)nn4)C[C@@H]3C)CC2)C1` [Compound 286, 6-[4-[[4-[5-acetyl-3-[6-cyano-7-(difluoromethyl)-3,4-dihydro-2H-quinolin-1-yl]-6,7-dihydro-4H-pyrazolo[4,3-c]pyridin-1-yl]-1-piperidyl]methyl]-3,5-dimethyl-1-piperidyl]-N-[4-(3-chloro-4-cyano-phenoxy)cyclohexyl]pyridazine-3-carboxamide] displayed a half-inhibitory concentration (IC50) in the assay on VCaP cells of at most 0.1 nM. For the same compound, the EC50 on AR / CBP ternary complex was under 1 nM.

`CC(=O)N1CCc2c(c(N3CCCc4cc(C#N)ccc43)nn2[C@H]2C[C@H](CC3CCN(c4ccc(C(=O)N[C@H]5CC[C@H](Oc6ccc(C#N)c(Cl)c6)CC5)nn4)CC3)C2)C1` [Compound 77, 6-[4-[[3-[5-acetyl-3-(6-cyano-3,4-dihydro-2H-quinolin-1-yl)-6,7-dihydro-4H-pyrazolo[4,3-c]pyridin-1-yl]cyclobutyl]methyl]-1-piperidyl]-N-[4-(3-chloro-4-cyano-phenoxy)cyclohexyl]pyridazine-3-carboxamide]: in the assay with VCaP cells, the half-inhibitory concentration (IC50) is 0.1 to 1 nM. In addition, at AR / CBP ternary complex, the EC50 fell in the range of 1 to 10 nM.

With `CC(=O)N1CCc2c(c(N3CCCc4cc(-c5cnn(C)c5)c(C(F)F)cc43)nn2C2CCN(C3CC4(CC(Oc5ccc(C(=O)N[C@H]6CC[C@H](Oc7ccc(C#N)c(Cl)c7)CC6)nn5)C4)C3)CC2)C1` (stereo partly drawn) [Compound 247, 6-[6-[4-[5-acetyl-3-[7-(difluoromethyl)-6-(1-methylpyrazol-4-yl)-3,4-dihydro-2H-quinolin-1-yl]-6,7-dihydro-4H-pyrazolo[4,3-c]pyridin-1-yl]-1-piperidyl]spiro[3.3]heptan-2-yl]oxy-N-[4-(3-chloro-4-cyano-phenoxy)cyclohexyl]pyridazine-3-carboxamide], the IC50 with VCaP cells is at most 0.1 nM. Moreover, at AR / CBP ternary complex, the EC50 was under 1 nM.

For the compound `CC(=O)N1CCc2c(c(N3CCCc4cc(-c5cnn(C)c5)c(C)cc43)nn2C2CCN(C3CCC4(CC3)CN(c3ccc(C(=O)N[C@H]5CC[C@H](Oc6ccc(C#N)c(C)c6)CC5)nn3)C4)CC2)C1` [Compound 298, 6-[7-[4-[5-acetyl-3-[7-methyl-6-(1-methylpyrazol-4-yl)-3,4-dihydro-2H-quinolin-1-yl]-6,7-dihydro-4H-pyrazolo[4,3-c]pyridin-1-yl]-1-piperidyl]-2-azaspiro[3.5]nonan-2-yl]-N-[4-(4-cyano-3-methyl-phenoxy)cyclohexyl] pyridazine-3-carboxamide], in the assay with VCaP cells, the IC50 was 0.1 to 1 nM. Also, the EC50 on AR / CBP ternary complex is under 1 nM.

In the assay on VCaP cells, `CC(=O)N1CCc2c(c(N3CCCc4cc(-c5cnn(C)c5)c(C(F)F)cc43)nn2C2CC3(C2)CN(C(=O)C2CC4(C2)CN(c2ccc(C(=O)N[C@H]5CC[C@H](Oc6ccc(C#N)c(Cl)c6)CC5)nn2)C4)C3)C1` (stereo partly drawn) [Compound 40, 6-[6-[6-[5-acetyl-3-[7-(difluorodimethyl)-6-(1-methylpyrazol-4-yl)-3,4-dihydro-2H-quinolin-1-yl]-6,7-dihydro-4H-pyrazolo[4,3-c]pyridin-1-yl]-2-azaspiro[3.3]heptane-2-carbonyl]-2-azaspiro[3.3]heptan-2-yl]-N-[4-(3-chloro-4-cyano-phenoxy)cyclohexyl]pyridazine-3-carboxamide] gave a 50% inhibitory concentration (IC50) of 0.1 to 1 nM. Also, the EC50 at AR / CBP ternary complex was in the range of 1 to 10 nM.

For `CC(=O)N1CCc2c(c(-c3cccc4cc(-c5cnn(CCC6CC7(C6)CN(c6ccc(C(=O)N[C@H]8CC[C@H](Oc9ccc(C#N)c(Cl)c9)CC8)nn6)C7)c5)ncc34)nn2C2CCOCC2)C1` [Compound 49, 6-[6-[2-[4-[8-(5-acetyl-1-tetrahydropyran-4-yl-6,7-dihydro-4H-pyrazolo[4,3-c]pyridin-3-yl)-3-isoquinolyl]pyrazol-1-yl]ethyl]-2-azaspiro[3.3]heptan-2-yl]-N-[4-(3-chloro-4-cyano-phenoxy)cyclohexyl]pyridazine3-carboxamide], in the assay on VCaP cells, the IC50 was in the range of 0.1 to 1 nM. In addition, the EC50 on AR / CBP ternary complex is under 1 nM.

Turning to `CC(=O)N1CCc2c(c(-c3cccc4cc(-c5cnn(CCC6CC7(C6)CN(c6ccc(C(=O)N[C@H]8CC[C@H](Oc9ccc(C#N)c(Cl)c9)CC8)nn6)C7)c5)ncc34)nn2C)C1` [Compound 50, 6-[6-[2-[4-[8-(5-acetyl-1-methyl-6,7-dihydro-4H-pyrazolo[4,3-c]pyridin-3-yl)-3-isoquinolyl]pyrazol-1-yl]ethyl]-2-azaspiro[3.3]heptan-2-yl]-N-[4-(3-chloro-4-cyano-phenoxy)cyclohexyl]pyridazine-3-carboxamide], the IC50 in the assay with VCaP cells is at most 0.1 nM. In addition, at AR / CBP ternary complex, the EC50 was under 1 nM.

In the assay on VCaP cells, `CC(=O)N1CCc2c(c(N3CCCc4cc(-c5ccn(C)n5)c(C(F)F)cc43)nn2C2CCN(CC3CCN(c4ccc(C(=O)N[C@H]5CC[C@H](Oc6ccc(C#N)c(Cl)c6)CC5)nn4)CC3)CC2)C1` [Compound 254, 6-[4-[[4-[5-acetyl-3-[7-(difluoromethyl)-6-(1-methylpyrazol-3-yl)-3,4-dihydro-2H-quinolin-1-yl]-6,7-dihydro-4H-pyrazolo[4,3-c]pyridin-1-yl]-1-piperidyl]methyl]-1-piperidyl]-N-[4-(3-chloro-4-cyano-phenoxy)cyclohexyl]pyridazine-3-carboxamide] came in with a half-inhibitory concentration (IC50) of at most 0.1 nM. Besides, on AR / CBP ternary complex, the EC50 was under 1 nM.

`CC(=O)N1CCc2c(c(-c3cccc4cc(-c5cnn(CCC6CCN(c7ccc(C(=O)N[C@H]8CC[C@H](Oc9ccc(C#N)c(Cl)c9)CC8)nn7)CC6)c5)ncc34)nn2C)C1` [Compound 8, 6-[4-[2-[4-[8-(5-acetyl-1-methyl-6,7-dihydro-4H-pyrazolo[4,3-c]pyridin-3-yl)-3-isoquinolyl]pyrazol-1-yl]ethyl]-1-piperidyl]-N-[4-(3-chloro-4-cyano-phenoxy)cyclohexyl]pyridazine-3-carboxamide] had an IC50 in the assay on VCaP cells of at most 0.1 nM. Further, the EC50 at AR / CBP ternary complex was under 1 nM.

On to `CC(=O)N1CCc2c(c(N3CCCc4cc(-c5cnn(C)c5)c(C(F)F)cc43)nn2C2CCN(CC3(C)CCN(c4ccc(C(=O)N[C@H]5CC[C@H](Oc6ccc(C#N)c(Cl)c6)CC5)nn4)CC3)CC2)C1` [Compound 100, 6-[4-[[4-[5-acetyl-3-[7-(difluoromethyl)-6-(1-methylpyrazol-4-yl)-3,4-dihydro-2H-quinolin-1-yl]-6,7-dihydro-4H-pyrazolo[4,3-c]pyridin-1-yl]-1-piperidyl]methyl]-4-methyl-1-piperidyl]-N-[4-(3-chloro-4-cyano-phenoxy)cyclohexyl]pyridazine-3-carboxamide], for which, in the assay on VCaP cells, the IC50 fell in the range of 0.1 to 1 nM. For the same compound, the EC50 on AR / CBP ternary complex is under 1 nM.
